Laboratory results: patent US20110053873A1, “HSP90 INHIBITORS” (TAKEDA PHARMACEUTICAL COMPANY LIMITED, priority 2008, published 2011)

Biological target: T1, HSP90α (Homo sapiens, UniProt P07900, I104V)
T1 construct: made in house; host or cells: E. coli (BL21)
Assay: Enzyme binding (competition fluorescence polarization) assay with TSD-FP probe
Conditions: method of Example A-1; incubation time not stated; read-out: Binding Affinity IC50
Experimental: The reaction can be followed kinetically using fluorescence (excitation λ=485 nm; emission λ=538 nm). The binding affinity of the test compound to HSP90 is determined by the changes in the polarized fluorescence; the intensity of the polarized fluorescence is proportional to the fraction of bound probe. A novel small molecule fluorescence probe, (S,E)-5-(2-(2-amino-7-(4-fluoro-2-(6-methoxypyridin-2-yl)phenyl)-4-methyl-7,8-dihydroquinazolin-5(6H)-ylideneaminooxy)ethylcarbamoyl)-2-(6-hydroxy-3-oxo-3H-xanthene-9-yl)benzoic acid (TSD-FP probe) was specifically developed for the assay. Inhibition constants (IC50) may be calculated by non-linear curve fitting of the compound concentrations and fluorescence intensities to the standard IC50 equation.
1. Enzyme Binding (Fluorescence Polarization) Assay for HSP90 Inhibitors.
a. Preparation of HSP90c Protein
This example describes cloning, expression and purification of a protein comprising the N-terminal domain of HSP90α. It should be noted that a variety of other expression systems and hosts are also suitable for the expression of such protein, as would be readily appreciated by one of skill in the art.
The sequence of human wild-type HSP90α is well known in the art; see, Chen B. et al. Genomics 2005 86:627-637. The gene encoding HSP90α can be isolated from RNA, cDNA or cDNA libraries. In this case, the gene encoding residues 9-236 of image clone 5270926 of HSP90α (ATCC) was isolated. This portion of the gene encoding a section of human HSP90α that includes the N-terminal nucleotide binding domain of human HSP90 was cloned into pET28a vector (Novagen). The DNA sequence of the vector is shown in SEQ ID NO: 1. Expression from this vector produced a protein consisting of the recombinant N-terminal nucleotide binding domain of HSP90α with a cleavable 6×-histidine tag and a cleavage site at the N-terminus. The amino acid sequence of this recombinant protein is shown in SEQ ID NO: 2.
Recombinant human N-terminal truncated His6-HSP90α was expressed in E. coli (BL21) cells with IPTG induction. Cell paste from 24×60 mL tubes (grown in a multi-tube airlift fermentor) was lysed using an automated sample lyser. Briefly, the pellet in each tube was suspended in 21 mL of lysis buffer consisting of 50 mM Tris pH 7.9, 50 mM NaCl, 1 mM MgCl2, 0.6 g/L Lysozyme (Sigma), 100 μL/L Benzonase (Novagen). […] After incubation, 5 M NaCl was added to bring the final salt concentration to 400 mM. The tubes were sonicated for 50 seconds and then centrifuged at 3400 rpm for 50 min. The supernatants were pooled and 4 ml of ProBond Ni resin (Invitrogen) was added. After at least 30 minutes, the resin was spun down, washed with 25 mM Tris pH 7.6, 400 mM NaCl, 20 mM imidazole, poured into a column and washed with 10 column volumes of the same buffer. The protein was eluted from the column using 3 column volumes of 25 mM Tris pH 7.6, 400 mM NaCl, 400 mM imidazole. The eluate was loaded onto a Supedex 200 column (GE Healthcare) equilibrated with 25 mM Tris pH 7.6, 250 mM NaCl, 0.25 mM TCEP, 1 mM EDTA and peak fractions were pooled and concentrated to ˜6 mg/mL using 10 kDA MWCO centrifugal concentrators (Millipore). Aliquots were flash frozen in liquid nitrogen and stored at −80° C. All purification was done at 4° C.
b. Preparation of the Fluorescence Polarization Probe.
A fluorescein labeled small molecule was designed and synthesized as a probe (TSD-FP probe) for the determination of the binding affinity of the test compound to HSP90 proteins. The synthesis of the small molecule, (S,E)-2-amino-7-(4-fluoro-2-(6-methoxypyridin-2-yl)phenyl)-4-methyl-7,8-dihydroquinazolin-5(6H)-one O-2-aminoethyl oxime (Compound 24) was described in Examples 24 and 25 above. The TSD-FP probe was prepared according to the following procedure:
c. Assaying the In Vitro Enzymatic Activity of HSP90 Inhibitors.
The inhibitory effect of the compounds of the invention against HSP90α was determined by fluorescence polarization assay.

| Compound | IC50 [nM] |
| --- | --- |
| COc1cccc(-c2cc(F)ccc2[C@H]2Cc3nc(N)nc(C)c3C(NOC3C[C@@H](O)[C@@H](O)C3)=N2)n1 (stereo partly drawn) [Compound 58, (7R,Z)-2-amino-7-(4-fluoro-2-(6-methoxypyridin-2-yl)phenyl)-4-methyl-7,8-dihydropyrido[4,3-d]pyrimidin-5(6H)-one O-(3R,4S)-3,4-dihydroxycyclopentyl oxime] | 5 |
| COc1cccc(-c2cc(F)ccc2[C@H]2Cc3nc(N)nc(C)c3/C(=N/O[C@@H](CCO)C(=O)N(C)C)N2)n1 [Compound 93, (S)-2-((Z)-((R)-2-amino-7-(4-fluoro-2-(6-methoxypyridin-2-yl)phenyl)-4-methyl-7,8-dihydropyrido[4,3-d]pyrimidin-5(6H)-ylidene)aminooxy)-4-hydroxy-N,N-dimethylbutanamide] | 8 |
| COc1cccc(-c2cc(F)ccc2[C@H]2Cc3nc(N)nc(C)c3/C(=N/OCC(=O)N(C)CCO)N2)n1 [Compound 99, (R,Z)-2-(2-amino-7-(4-fluoro-2-(6-methoxypyridin-2-yl)phenyl)-4-methyl-7,8-dihydropyrido[4,3-d]pyrimidin-5(6H)-ylideneaminooxy)-N-(2-hydroxyethyl)-N-methylacetamide] | 8 |
| COc1cccc(-c2cc(F)ccc2[C@H]2Cc3nc(N)nc(C)c3/C(=N/OCCCCO)N2)n1 [Compound 79, (R,Z)-2-amino-7-(4-fluoro-2-(6-methoxypyridin-2-yl)phenyl)-4-methyl-7,8-dihydropyrido[4,3-d]pyrimidin-5(6H)-one O-4-hydroxybutyl oxime] | 6 |
| COc1cccc(-c2cc(F)ccc2[C@H]2Cc3nc(N)nc(C)c3C(NOCC3C[C@@H](O)[C@@H](O)C3)=N2)n1 (stereo partly drawn) [Compound 59, (7R,Z)-2-amino-7-(4-fluoro-2-(6-methoxypyridin-2-yl)phenyl)-4-methyl-7,8-dihydropyrido[4,3-d]pyrimidin-5(6H)-one O-((3R,4S)-3,4-dihydroxycyclopentyl)methyl oxime] | 8 |
| COc1cccc(-c2cc(F)ccc2[C@H]2Cc3nc(N)nc(C)c3C(NOCCCO)=N2)n1 [Compound 78, (R,Z)-2-amino-7-(4-fluoro-2-(6-methoxypyridin-2-yl)phenyl)-4-methyl-7,8-dihydropyrido[4,3-d]pyrimidin-5(6H)-one O-3-hydroxypropyl oxime] | 4 |
| COc1cccc(-c2cc(F)ccc2[C@H]2Cc3nc(N)nc(C)c3/C(=N/OCC[C@H](O)CO)N2)n1 [Compound 37, (R,Z)-2-amino-7-(4-fluoro-2-(6-methoxypyridin-2-yl)phenyl)-4-methyl-7,8-dihydropyrido[4,3-d]pyrimidin-5(6H)-one O—(S)-3,4-dihydroxybutyl oxime] | 6 |
| COc1cccc(-c2cc(F)ccc2[C@H]2Cc3nc(N)nc(C)c3C(NOCC3CCC(O)CC3)=N2)n1 (stereo partly drawn) [Compound 65, (R,Z)-2-amino-7-(4-fluoro-2-(6-methoxypyridin-2-yl)phenyl)-4-methyl-7,8-dihydropyrido[4,3-d]pyrimidin-5(6H)-one O-((1s,4S)-4-hydroxycyclohexyl)methyl oxime] | 10 |
| COc1cccc(-c2cc(F)ccc2[C@H]2Cc3nc(N)nc(C)c3C(NOCC(CO)CO)=N2)n1 [Compound 35, (R,Z)-2-Amino-7-(4-fluoro-2-(6-methoxypyridin-2-yl)phenyl)-4-methyl-7,8-dihydropyrido[4,3-d]pyrimidin-5(6H)-one O-3-hydroxy-2-(hydroxymethyl)propyl oxime] | 13 |
| COc1cccc(-c2cc(F)ccc2[C@H]2Cc3nc(N)nc(C)c3/C(=N/O)N2)n1 [Compound 61, (R,Z)-2-amino-7-(4-fluoro-2-(6-methoxypyridin-2-yl)phenyl)-4-methyl-7,8-dihydropyrido[4,3-d]pyrimidin-5(6H)-one oxime] | 3 |
| COc1cccc(-c2cc(F)ccc2[C@H]2Cc3nc(N)nc(C)c3/C(=N/OC[C@H](O)CO)N2)n1 [Compound 33, (R,Z)-2-Amino-7-(4-fluoro-2-(6-methoxypyridin-2-yl)phenyl)-4-methyl-7,8-dihydropyrido[4,3-d]pyrimidin-5(6H)-one O—(R)-2,3-dihydroxypropyl oxime] | 4 |
| COc1cccc(-c2cc(F)ccc2[C@H]2Cc3nc(N)nc(C)c3C(NOCC(=O)N(C)C)=N2)n1 [Compound 83, (R,Z)-2-(2-amino-7-(4-fluoro-2-(6-methoxypyridin-2-yl)phenyl)-4-methyl-7,8-dihydropyrido[4,3-d]pyrimidin-5(6H)-ylideneaminooxy)-N,N-dimethylacetamide] | 8 |
| COc1cccc(-c2cc(F)ccc2[C@H]2Cc3nc(N)nc(C)c3C(NOCC(=O)N(C)C[C@H](O)CO)=N2)n1 [Compound 96, 2-((Z)-((R)-2-amino-7-(4-fluoro-2-(6-methoxypyridin-2-yl)phenyl)-4-methyl-7,8-dihydropyrido[4,3-d]pyrimidin-5(6H)-ylidene)aminooxy)-N—((S)-2,3-dihydroxypropyl)-N-methylacetamide] | 13 |
| COc1cccc(-c2cc(F)ccc2[C@H]2Cc3nc(N)nc(C)c3/C(=N/OCC(=O)N3CC[C@@H](F)C3)N2)n1 [Compound 85, 2-((Z)-((R)-2-amino-7-(4-fluoro-2-(6-methoxypyridin-2-yl)phenyl)-4-methyl-7,8-dihydropyrido[4,3-d]pyrimidin-5(6H)-ylidene)aminooxy)-1-((R)-3-fluoropyrrolidin-1-yl)ethanone] | 4 |

Test system: cells
Assay: not given
Conditions: cited from earlier work

| Compound | concentration range of biological effects on cells |
| --- | --- |
| C#CCCCn1c(Cc2cc(OC)c(OC)c(OC)c2Cl)nc2c(N)nc(F)nc21 [PU24FCl] | 2-6 μM |

Test system: HSP90
Assay: not given
Conditions: transformed cells vs normal tissues; cited from earlier work

| Compound | higher affinity for HSP90 from transformed cells compared to that from normal tissues |
| --- | --- |
| C#CCCCn1c(Cc2cc(OC)c(OC)c(OC)c2Cl)nc2c(N)nc(F)nc21 [PU24FCl] | 10-50 times |
